Experimental data as given in patent US11466044B2 (WAYNE STATE UNIVERSITY, priority 2017, dated 2022).
Converted amounts (≈) assume the structure as drawn. Read-outs that look alike come from different tables or passages of the source.

Tests used:
[1] = system: P aeruginosa; test: MIC by broth microdilution, P aeruginosa isolates; type: cell-based, Pseudomonas aeruginosa; settings: for MIC: Pseudomonas aeruginosa
[2] = system: wild type bacterial ribosomes; test: in-vitro translation assay, bacterial ribosomes; type: biochemical; settings: Mycobacterium smegmatis ribosomes; read-out: IC50 Bacterial
Excerpt: (§1) The antiribosomal activity of these compounds was investigated with cell-free translation assays using both wild type bacterial ribosomes and hybrid ribosomes carrying eukaryotic decoding A sites enabling the prediction of selectivity.

[3] = system: rabbit reticulocyte ribosomes; test: in-vitro translation assay, rabbit reticulocyte ribosomes; type: biochemical; settings: mammalian cytosolic ribosomes (rabbit)
[4] = system: A1555G mutant mitochondrial ribosome (human chimeric); test: in-vitro translation assay, human chimeric ribosomes, A1555G mutant mitochondrial decoding site; type: biochemical; settings: human mitochondrial decoding site with A1555G point mutation; read-out: IC50 Mitoch. A1555G
Excerpt: as §1

[5] = system: MRSA; test: MIC by broth microdilution, MRSA isolates; type: cell-based; settings: for MIC: Staphylococcus aureus, MRSA
[6] = system: E coli wild type; test: MIC by broth microdilution, wild type E coli; type: cell-based; settings: for MIC pH430 WT: E. coli strain pH430, WT; for MIC: Escherichia coli
[7] = system: mitochondrial ribosome (human chimeric); type: biochemical; settings: for IC50: ribosomes with a human mitochondrial decoding site, read-out: IC50 Mitoch.
Excerpt: as §1

[8] = system: cytosolic ribosome (human chimeric); type: biochemical; settings: for IC50: ribosomes with a human cytosolic decoding site, read-out: IC50 Cytosolic
Excerpt: as §1

[9] = system: E coli carrying specific resistance determinants; test: MIC by broth microdilution, E coli carrying specific resistance determinants; type: cell-based; settings: for MIC AG036 ANT(4′,4′′): E. coli strain AG036, ANT(4′,4′′); for MIC AG037 APH(3′)-III: E. coli strain AG037, APH(3′)-III; for MIC pH421 APH(3)-I: E. coli strain pH421, APH(3)-I; for MIC pH422 APH(3′)-II: E. coli strain pH422, APH(3′)-II; for MIC pH423 APH(3′)-VI: E. coli strain pH423, APH(3′)-VI; for MIC AG003 E. coli AAC(3)-II: clinical isolate AG003, AAC(3)-II; for MIC: Escherichia coli, read-out: MIC AG003 E. coli AAC(3)-II
[10] = clinical isolate AG031, APH(3′)-II
[11] = clinical isolate AG032, APH(3′)-II
[12] = clinical isolate AG039, AAC(6′)-I ANT(4′)-I
[13] = clinical isolate AG042, AAC(6′)-I ANT(4′)-I APH(2′)
[14] = clinical isolate AG031, APH(3′)-II, read-out: MIC AG031 P. aer. APH(3′)-II
[15] = clinical isolate AG032, APH(3′)-II, read-out: MIC AG032 P. aer. APH(3′)-II
[16] = clinical isolate AG038, read-out: MIC AG038 MRSA
[17] = clinical isolate AG039, AAC(6′)-I ANT(4′)-I, read-out: MIC AG039 MRSA AAC(6′)-I ANT(4′)-I
[18] = clinical isolate AG042, AAC(6′)-I ANT(4′)-I APH(2′), read-out: MIC AG042 MRSA AAC(6′)-I ANT(4′)-I APH(2′)
[19] = clinical isolate AG001, WT, read-out: MIC AG001 E. coli WT
[20] = clinical isolate AG055, WT, read-out: MIC AG055 E. coli WT

SMILES: NCC1OC(OC2C(CO)OC(OC3C(O)C(N)CC(N)C3OC3OC4C(O)CCCOC4C(O)C3N)C2O)C(N)C(O)C1O (stereo not drawn) [DC196]
- MIC AG031 P. aer. APH(3′)-II [1, 10]: >32 µg/mL
- IC50 [2]: 0.14 µM
- IC50 [3]: 43 µM
- IC50 [4]: 96 µM
- MIC AG038 MRSA ([5]; clinical isolate AG038): 2 µg/mL (≈ 3.05 µM)
- MIC pH430 WT [6]: 4 μg/ml
- MIC AG001 E. coli WT ([6]; clinical isolate AG001, WT): 4 µg/mL (≈ 6.1 µM)
- IC50 [7]: 200 µM
- IC50 [8]: 88 µM
- MIC AG036 ANT(4′,4′′) [9]: 2 µg/mL (≈ 3.05 µM)
- MIC AG037 APH(3′)-III [9]: >128 µg/mL
- MIC pH421 APH(3)-I [9]: >128 μg/ml
- MIC pH422 APH(3′)-II [9]: 64 μg/ml
- MIC pH423 APH(3′)-VI [9]: 16 μg/ml

SMILES: NC[C@@H]1O[C@H](O[C@H]2[C@@H](O)[C@H](O[C@@H]3[C@@H](O)[C@H](N)C[C@H](N)[C@H]3O[C@H]3O[C@H](CN)[C@@H](O)[C@H](O)[C@H]3O)O[C@@H]2CO)[C@H](N)[C@@H](O)[C@@H]1O [DC-119]
- MIC AG031 P. aer. APH(3′)-II [1, 10]: 128 µg/mL (≈ 208 µM)
- MIC AG032 P. aer. APH(3′)-II [1, 11]: 128 µg/mL (≈ 208 µM)
- IC50 [2]: 0.03 µM
- IC50 [3]: 88 µM
- IC50 [4]: 2.7 µM
- MIC AG038 MRSA ([5]; clinical isolate AG038): 2 µg/mL (≈ 3.25 µM)
- MIC AG039 MRSA AAC(6′)-I ANT(4′)-I [5, 12]: >128 µg/mL
- MIC AG042 MRSA AAC(6′)-I ANT(4′)-I APH(2′) [5, 13]: >128 µg/mL
- MIC AG044 MRSA ([5]; clinical isolate AG044): 2 µg/mL (≈ 3.25 µM)
- MIC AG001 E. coli WT ([6]; clinical isolate AG001, WT): 2 to 4 µg/mL
- MIC AG055 E. coli WT ([6]; clinical isolate AG055, WT): 2 to 4 µg/mL
- IC50 [7]: 36 µM
- IC50 [8]: 108 µM
- MIC AG003 E. coli AAC(3)-II [9]: 2 to 4 µg/mL

SMILES: CC(C)(O)[C@H]1O[C@H](O[C@H]2[C@H](O[C@@H]3O[C@H](CO)[C@@H](O[C@H]4O[C@@H](CN)[C@@H](O)[C@H](O)[C@H]4N)[C@H]3O)[C@@H](O)[C@H](N)C[C@@H]2N)[C@H](N)[C@@H](O)[C@@H]1O [DC159]
- MIC AG031 P. aer. APH(3′)-II [1, 10]: >128 µg/mL
- MIC AG032 P. aer. APH(3′)-II [1, 11]: >128 µg/mL
- IC50 [2]: 0.04 µM
- IC50 [3]: 15 µM
- IC50 [4]: 87 µM
- MIC AG038 MRSA ([5]; clinical isolate AG038): 8 to 16 µg/mL
- MIC AG039 MRSA AAC(6′)-I ANT(4′)-I [5, 12]: >128 µg/mL
- MIC AG042 MRSA AAC(6′)-I ANT(4′)-I APH(2′) [5, 13]: >128 µg/mL
- MIC AG044 MRSA ([5]; clinical isolate AG044): 4 to 8 µg/mL
- MIC pH430 WT [6]: 1-2 μg/ml
- MIC AG001 E. coli WT ([6]; clinical isolate AG001, WT): 8 µg/mL (≈ 12.4 µM)
- MIC AG055 E. coli WT ([6]; clinical isolate AG055, WT): 8 µg/mL (≈ 12.4 µM)
- IC50 [7]: 211 µM
- IC50 [8]: 30 µM
- MIC AG036 ANT(4′,4′′) [9]: 16 to 32 µg/mL
- MIC AG037 APH(3′)-III [9]: >64 µg/mL
- MIC AG103 armA ([9]; E. coli strain AG103, armA): 4 to 8 µg/mL
- MIC pH421 APH(3)-I [9]: >64 μg/ml
- MIC pH422 APH(3′)-II [9]: >64 μg/ml
- MIC pH423 APH(3′)-VI [9]: 8 μg/ml
- MIC pH432 ANT(4′) ([9]; E. coli strain pH432, ANT(4′)): 2 μg/ml
- MIC AG003 E. coli AAC(3)-II [9]: 8 µg/mL (≈ 12.4 µM)

SMILES: CC(=O)N[C@H]1[C@@H](O[C@H]2[C@H](O[C@@H]3O[C@H](CO)[C@@H](O[C@H]4O[C@@H](CN)[C@@H](O)[C@H](O)[C@H]4N)[C@H]3O)[C@@H](O)[C@H](N)C[C@@H]2N)O[C@H](CN)[C@@H](O)[C@@H]1O [DC-183]
- MIC AG031 P. aer. APH(3′)-II [1, 10]: >32 µg/mL
- MIC AG032 P. aer. APH(3′)-II [1, 11]: >32 µg/mL
- IC50 [2]: 5.3 µM
- IC50 [3]: 103 µM
- IC50 [4]: 28 µM
- MIC AG038 MRSA ([5]; clinical isolate AG038): >32 µg/mL
- MIC AG039 MRSA AAC(6′)-I ANT(4′)-I [5, 12]: >32 µg/mL
- MIC AG042 MRSA AAC(6′)-I ANT(4′)-I APH(2′) [5, 13]: >32 µg/mL
- MIC AG001 E. coli WT ([6]; clinical isolate AG001, WT): >32 µg/mL
- MIC AG055 E. coli WT ([6]; clinical isolate AG055, WT): >32 µg/mL
- Target specificity bacterial vs. Mitochondrial ([7]; relative target specificity, bacterial vs. human mitochondrial): low
- IC50 [7]: 93 µM
- Target specificity bacterial vs. Cytosolic ([8]; relative target specificity, bacterial vs. human cytosolic): low
- IC50 [8]: 147 µM
- MIC AG003 E. coli AAC(3)-II [9]: >32 µg/mL

SMILES: NCC1OC(OC2C(CO)OC(OC3C(O)C(N)CC(N)C3OC3OC(CN)C(O)C(O)C3NC=O)C2O)C(N)C(O)C1O (stereo not drawn) [DC-182]
- MIC [1, 14]: > 32 µg/mL
- MIC [1, 15]: > 32 µg/mL
- IC50 [2]: 0.12 µM
- IC50 [3]: 110 µM
- IC50 [4]: 13 µM
- MIC [5, 16]: 2 to 4 µg/mL (≈ 3.11 to 6.22 µM)
- MIC [5, 17]: > 32 µg/mL
- MIC [5, 18]: > 32 µg/mL
- MIC [6, 19]: 4 to 8 µg/mL (≈ 6.22 to 12.4 µM)
- MIC [6, 20]: 2 µg/mL (≈ 3.11 µM)
- IC50 [7]: 54 µM
- IC50 [8]: 127 µM
- MIC [9]: 4 to 8 µg/mL (≈ 6.22 to 12.4 µM)

SMILES: CNC1C(OC2C(N)CC(N)C(O)C2OC2OC(CO)C(O)C2O)OC(CN)C(O)C1O (stereo not drawn) [DC-100]
- MIC [1, 14]: > 128 µg/mL
- MIC [1, 15]: > 128 µg/mL
- IC50 [2]: 0.52 µM
- IC50 [3]: 90 µM
- IC50 [4]: 224 µM
- MIC [5, 16]: 64 to 128 µg/mL (≈ 137 to 273 µM)
- MIC [5, 17]: > 128 µg/mL
- MIC [5, 18]: > 128 µg/mL
- MIC ([5]; clinical isolate AG044, read-out: MIC AG044 MRSA): 128 µg/mL (≈ 273 µM)
- MIC [6, 19]: 64 to 128 µg/mL (≈ 137 to 273 µM)
- MIC [6, 20]: 64 to 128 µg/mL (≈ 137 to 273 µM)
- IC50 [7]: 457 µM
- IC50 [8]: 372 µM
- MIC [9]: 64 µg/mL (≈ 137 µM)

SMILES: NCC1OC(OC2C(CNC=O)OC(OC3C(O)C(N)CC(N)C3OC3OC(CO)C(O)CC3N)C2O)C(N)C(O)C1O (stereo not drawn) [DC153]
- MIC AG031 P. aer. APH(3′)-II [1, 10]: 32 to 64 µg/mL
- MIC AG032 P. aer. APH(3′)-II [1, 11]: 32 µg/mL (≈ 51.1 µM)
- IC50 [2]: 0.12 µM
- IC50 [3]: 57 µM
- IC50 [4]: 39 µM
- MIC AG038 MRSA ([5]; clinical isolate AG038): 4 µg/mL (≈ 6.38 µM)
- MIC AG039 MRSA AAC(6′)-I ANT(4′)-I [5, 12]: >128 µg/mL
- MIC AG042 MRSA AAC(6′)-I ANT(4′)-I APH(2′) [5, 13]: >128 µg/mL
- MIC AG044 MRSA ([5]; clinical isolate AG044): 4 µg/mL (≈ 6.38 µM)
- MIC AG001 E. coli WT ([6]; clinical isolate AG001, WT): 4 µg/mL (≈ 6.38 µM)
- MIC AG055 E. coli WT ([6]; clinical isolate AG055, WT): 2 to 4 µg/mL
- IC50 [7]: 144 µM
- IC50 [8]: 132 µM
- MIC AG003 E. coli AAC(3)-II [9]: 4 µg/mL (≈ 6.38 µM)

SMILES: NCC1OC(OC2C(CNC(N)=O)OC(OC3C(O)C(N)CC(N)C3OC3OC(CO)C(O)C(O)C3N)C2O)C(N)C(O)C1O (stereo not drawn) [DC141]
- MIC AG031 P. aer. APH(3′)-II [1, 10]: >128 µg/mL
- MIC AG032 P. aer. APH(3′)-II [1, 11]: >128 µg/mL
- IC50 [2]: 0.03 µM
- IC50 [3]: 29 µM
- IC50 [4]: 28 µM
- MIC AG038 MRSA ([5]; clinical isolate AG038): 4 to 8 µg/mL
- MIC AG039 MRSA AAC(6′)-I ANT(4′)-I [5, 12]: >128 µg/mL
- MIC AG042 MRSA AAC(6′)-I ANT(4′)-I APH(2′) [5, 13]: >128 µg/mL
- MIC AG044 MRSA ([5]; clinical isolate AG044): 4 µg/mL (≈ 6.08 µM)
- MIC AG001 E. coli WT ([6]; clinical isolate AG001, WT): 8 µg/mL (≈ 12.2 µM)
- MIC AG055 E. coli WT ([6]; clinical isolate AG055, WT): 4 µg/mL (≈ 6.08 µM)
- IC50 [7]: 70 µM
- IC50 [8]: 89 µM
- MIC AG003 E. coli AAC(3)-II [9]: 4 µg/mL (≈ 6.08 µM)
